From ChEMBL document CHEMBL4118082 (Eur J Med Chem, 2017)
Values after ≈ are worked out from the molar mass of the structure shown.

Columns and labels:
Type in all cases: functional
[1] = tested on: Mycobacterium tuberculosis; assay: Growth inhibition of Mycobacterium tuberculosis H37Ra Lehmann and Neumann ATCC 25177 harboring pSMT1 luciferase reporter at 10 uM after 6 days by luminescence based serial dilution method relative to control; conditions: H37Ra Lehmann and Neumann ATCC 25177, 144 h, read-out: GI
[2] = tested on: Mycobacterium tuberculosis; assay: Growth inhibition of Mycobacterium tuberculosis H37Ra Lehmann and Neumann ATCC 25177 harboring pSMT1 luciferase reporter at 1 uM after 6 days by luminescence based serial dilution method relative to control; conditions: H37Ra Lehmann and Neumann ATCC 25177, 144 h, read-out: GI
[3] = tested on: Mycobacterium tuberculosis; assay: Growth inhibition of Mycobacterium tuberculosis H37Ra Lehmann and Neumann ATCC 25177 harboring pSMT1 luciferase reporter at 0.1 uM after 6 days by luminescence based serial dilution method relative to control; conditions: H37Ra Lehmann and Neumann ATCC 25177, 144 h, read-out: GI
[4] = tested on: Mycobacterium tuberculosis; assay: Antimycobacterial activity against Mycobacterium tuberculosis H37Ra Lehmann and Neumann ATCC 25177 harboring pSMT1 luciferase reporter after 6 days by luminescence based serial dilution method; conditions: H37Ra Lehmann and Neumann ATCC 25177, 144 h

SMILES: CCCCc1c(O)c2cc(OC)cc(OC)c2[nH]c1=O
- inhibition of growth at 10 µM [1]: 62.6%
- inhibition of growth at 1 µM [2]: 10.7%
- inhibition of growth at 0.1 µM [3]: 0%

SMILES: Cc1c(O)c2ccccc2n(-c2ccccc2)c1=O
- inhibition of growth at 10 µM [1]: 74.5%
- inhibition of growth at 1 µM [2]: 48.5%
- inhibition of growth at 0.1 µM [3]: 36%

SMILES: CCc1c(O)c2ccccc2n(-c2ccccc2)c1=O
- inhibition of growth at 10 µM [1]: 25.6%
- inhibition of growth at 1 µM [2]: 34.8%
- inhibition of growth at 0.1 µM [3]: 22.5%

SMILES: O=c1c(Cc2ccccc2)c(O)c2ccccc2n1-c1ccccc1
- inhibition of growth at 10 µM [1]: 56.3%
- inhibition of growth at 1 µM [2]: 54.7%
- inhibition of growth at 0.1 µM [3]: 20.3%

SMILES: Cc1ccc2[nH]c(=O)c(-c3ccccc3)c(O)c2c1
- inhibition of growth at 10 µM [1]: 92.3%
- inhibition of growth at 1 µM [2]: 51.2%
- inhibition of growth at 0.1 µM [3]: 36.2%
- MIC90 [4]: 8 µM (≈ 2.01 µg/mL)

SMILES: CCCc1c(O)c2ccccc2n(-c2ccccc2)c1=O
- inhibition of growth at 10 µM [1]: 56.6%
- inhibition of growth at 1 µM [2]: 46.3%
- inhibition of growth at 0.1 µM [3]: 10.4%

SMILES: COc1cccc2c(OC(C)=O)c(-c3ccccc3)c(=O)[nH]c12
- inhibition of growth at 10 µM [1]: 76.3%
- inhibition of growth at 1 µM [2]: 32.5%
- inhibition of growth at 0.1 µM [3]: 8.9%

SMILES: CC(=O)Oc1c(-c2ccccc2)c(=O)[nH]c2ccccc12
- inhibition of growth at 10 µM [1]: 72.3%
- inhibition of growth at 1 µM [2]: 35.4%
- inhibition of growth at 0.1 µM [3]: 10.9%

SMILES: CO[C@H]1/C=C/O[C@@]2(C)Oc3c(C)c(O)c4c(O)c(c(/C=N/N5CCN(C)CC5)c(O)c4c3C2=O)NC(=O)/C(C)=C\C=C\[C@H](C)[C@H](O)[C@@H](C)[C@@H](O)[C@@H](C)[C@H](OC(C)=O)[C@@H]1C [RIFAMPIN]
- MIC90 [4]: 0.1 µM (≈ 0.0823 µg/mL)

SMILES: Cc1c(O)c2ccccc2[nH]c1=O
- inhibition of growth at 10 µM [1]: 55.5%
- inhibition of growth at 1 µM [2]: 46.6%
- inhibition of growth at 0.1 µM [3]: 43.6%
- MIC90 [4]: 6.8 µM (≈ 1.19 µg/mL)

SMILES: CC12CCC(c3c(O)c(-c4ccccc4)c(=O)n(-c4ccccc4)c31)C2(C)C (racemic)
- inhibition of growth at 10 µM [1]: 12.5%
- inhibition of growth at 1 µM [2]: 8.1%
- inhibition of growth at 0.1 µM [3]: 0%

SMILES: CCc1c(OC(C)=O)c2cc(OC)ccc2[nH]c1=O
- inhibition of growth at 10 µM [1]: 27.8%
- inhibition of growth at 1 µM [2]: 10.1%
- inhibition of growth at 0.1 µM [3]: 0%

SMILES: CCCCc1c(O)c2cc(Cl)ccc2[nH]c1=O
- inhibition of growth at 10 µM [1]: 64.8%
- inhibition of growth at 1 µM [2]: 35.4%
- inhibition of growth at 0.1 µM [3]: 21.6%

SMILES: CCc1c(OC(C)=O)c2ccc(OC)cc2[nH]c1=O
- inhibition of growth at 10 µM [1]: 28.6%
- inhibition of growth at 1 µM [2]: 15.3%
- inhibition of growth at 0.1 µM [3]: 0%

SMILES: CCn1c(=O)c(-c2ccccc2)c(O)c2ccccc21
- inhibition of growth at 10 µM [1]: 8.2%
- inhibition of growth at 1 µM [2]: 0%
- inhibition of growth at 0.1 µM [3]: 0%

SMILES: COc1ccc2c(O)c(-c3ccccc3)c(=O)[nH]c2c1
- inhibition of growth at 10 µM [1]: 98.2%
- inhibition of growth at 1 µM [2]: 74.4%
- inhibition of growth at 0.1 µM [3]: 56.5%
- MIC90 [4]: 9.1 µM (≈ 2.43 µg/mL)

SMILES: O=c1[nH]c2cc(O)ccc2c(O)c1-c1ccccc1
- inhibition of growth at 10 µM [1]: 96.3%
- inhibition of growth at 1 µM [2]: 61.7%
- inhibition of growth at 0.1 µM [3]: 53.7%
- MIC90 [4]: 8.2 µM (≈ 2.08 µg/mL)

SMILES: CCc1c(O)c2ccccc2[nH]c1=O
- inhibition of growth at 10 µM [1]: 98.6%
- inhibition of growth at 1 µM [2]: 78.2%
- inhibition of growth at 0.1 µM [3]: 59.2%

SMILES: CCc1c(O)c2ccc(O)cc2[nH]c1=O
- inhibition of growth at 10 µM [1]: 49.4%
- inhibition of growth at 1 µM [2]: 34.3%
- inhibition of growth at 0.1 µM [3]: 25.6%

SMILES: COc1cccc2c(O)c(-c3ccccc3)c(O)nc12
- inhibition of growth at 10 µM [1]: 95%
- inhibition of growth at 1 µM [2]: 47.5%
- inhibition of growth at 0.1 µM [3]: 42.5%
- MIC90 [4]: 7.9 µM (≈ 2.11 µg/mL)

SMILES: CC(C)c1c(O)c2ccccc2[nH]c1=O
- inhibition of growth at 10 µM [1]: 69.3%
- inhibition of growth at 1 µM [2]: 47.4%
- inhibition of growth at 0.1 µM [3]: 42.5%

SMILES: Oc1nc2ccccc2c(O)c1-c1ccccc1
- inhibition of growth at 10 µM [1]: 92.4%
- inhibition of growth at 1 µM [2]: 59.2%
- inhibition of growth at 0.1 µM [3]: 56%
- MIC90 [4]: 8.5 µM (≈ 2.02 µg/mL)

SMILES: CCc1c(O)c2c(C)ccc(C)c2[nH]c1=O
- inhibition of growth at 10 µM [1]: 86.2%
- inhibition of growth at 1 µM [2]: 46.4%
- inhibition of growth at 0.1 µM [3]: 16.9%

SMILES: CCCCc1c(O)c2ccccc2n(Cc2ccccc2)c1=O
- inhibition of growth at 10 µM [1]: 33.2%
- inhibition of growth at 1 µM [2]: 25.3%
- inhibition of growth at 0.1 µM [3]: 20.9%

SMILES: CCCc1c(O)c2cc(F)ccc2[nH]c1=O
- inhibition of growth at 10 µM [1]: 78.2%
- inhibition of growth at 1 µM [2]: 38.5%
- inhibition of growth at 0.1 µM [3]: 13.2%

SMILES: CCc1c(O)c2cccc(OC)c2[nH]c1=O
- inhibition of growth at 10 µM [1]: 71%
- inhibition of growth at 1 µM [2]: 66.4%
- inhibition of growth at 0.1 µM [3]: 65.8%

SMILES: O=c1[nH]c2ccc(O)cc2c(O)c1-c1ccccc1
- inhibition of growth at 10 µM [1]: 95.1%
- inhibition of growth at 1 µM [2]: 52.1%
- inhibition of growth at 0.1 µM [3]: 32.3%
- MIC90 [4]: 8.3 µM (≈ 2.1 µg/mL)
